Test results: US4861788A, “Antibacterial 1-normon-2-yl-heterocyclic compounds” (Beecham Group plc, priority 1983, dated 1989)
≈ marks a conversion by molar mass, not a printed value. Where two headings read alike, the source gives them in different places.

What was measured:
[1] = test system: M. hyopneumoniae NB12; test: MIC against Mycoplasma in vitro (Friis broth with agarose); format: cell-based; details: Mesomycoplasma hyopneumoniae
[2] = test system: M. hyopneumoniae JF 435; test: as above; format: cell-based; details: Mesomycoplasma hyopneumoniae, JF435, 144 h
[3] = test system: M. hyopneumoniae J2206/183^b; test: as above; format: cell-based; details: Mesomycoplasma hyopneumoniae, 144 h
[4] = test system: M. hyopneumoniae PW/C/210; test: as above; format: cell-based; details: Mesomycoplasma hyopneumoniae, 144 h; M. hyopneumoniae PW/C/210; 6 days at 37° C; read-out: MIC
[5] = test system: Bacillus subtilis 6633; test: MIC against human bacteria in vitro (nutrient agar, chocolated horse blood); format: cell-based; details: human; Bacillus subtilis 6633; 18 hours at 37° C; read-out: MIC
Protocol: (§1) The activity of the normonyl derivaties of the Examples against various bacteria which are important in diseases of humans, was assayed in vitro using serial dilutions in nurient agar with 5% chocolated horse blood.

[6] = test system: E. coli ESS; test: as above; format: cell-based; details: Escherichia coli; human; E. coli ESS; 18 hours at 37° C; read-out: MIC
Protocol: as §1

[7] = test system: E. coli NCTC 10418; test: as above; format: cell-based; details: Escherichia coli, NCTC10418; human; E. coli NCTC 10418; 18 hours at 37° C; read-out: MIC
Protocol: as §1

[8] = test system: Haemophilus influenzae Wy21; test: as above; format: cell-based; details: human; Haemophilus influenzae Wy21; 18 hours at 37° C; read-out: MIC
Protocol: as §1

[9] = test system: K. aerogenes A; test: as above; format: cell-based; details: Klebsiella aerogenes; human; K. aerogenes A; 18 hours at 37° C; read-out: MIC
Protocol: as §1

[10] = test system: Neisseria catarrhalis 1502; test: as above; format: cell-based
Protocol: as §1

[11] = test system: P. mirabilis 889; test: as above; format: cell-based; details: Proteus mirabilis; human; P. mirabilis 889; 18 hours at 37° C; read-out: MIC
Protocol: as §1

[12] = test system: Pasteurella multocida 1633; test: as above; format: cell-based; details: human; Pasteurella multocida 1633; 18 hours at 37° C; read-out: MIC
Protocol: as §1

[13] = test system: Ps. aeruginosa NCTC 10662; test: as above; format: cell-based; details: Pseudomonas aeruginosa, NCTC10662; human; Ps. aeruginosa NCTC 10662; 18 hours at 37° C; read-out: MIC
Protocol: as §1

[14] = test system: Sarcina lutea 8340; test: as above; format: cell-based; details: Micrococcus luteus; human; Sarcina lutea 8340; 18 hours at 37° C; read-out: MIC
Protocol: as §1

[15] = test system: Staph. aureus Oxford; test: as above; format: cell-based; details: Staphylococcus aureus
Protocol: as §1

[16] = test system: Staph. aureus Russell; test: as above; format: cell-based; details: Staphylococcus aureus; human; Staph. aureus Russell; 18 hours at 37° C; read-out: MIC
Protocol: as §1

[17] = test system: Staph. aureus W2827; test: as above; format: cell-based; details: Staphylococcus aureus; human; Staph. aureus W2827; 18 hours at 37° C; read-out: MIC
Protocol: as §1

[18] = test system: Strep. agalactiae 2788-B; test: as above; format: cell-based; details: Streptococcus agalactiae; human; Strep. agalactiae 2788-B; 18 hours at 37° C; read-out: MIC
Protocol: as §1

[19] = test system: Strep. faecalis I; test: as above; format: cell-based; details: Enterococcus faecalis; human; Strep. faecalis I; 18 hours at 37° C; read-out: MIC
Protocol: as §1

[20] = test system: Strep. spp. 64/848-C; test: as above; format: cell-based; details: human; Strep. spp. 64/848-C; 18 hours at 37° C; read-out: MIC
Protocol: as §1

[21] = test system: E. coli E1; test: MIC against veterinary bacteria in vitro (Diagnostic Sensitivity Test Agar); details: Escherichia coli, E1, 18 h
Protocol: (§2) The activity of the normonyl derivatives of the Examples against various veterinarily important bacteria, was assayed in vitro using two-fold serial dilutions in Diagnostic Sensitivity Test Agar inoculated with 10^4 organisms.

[22] = test system: Staph. aureus Oxford; test: as above; details: Staphylococcus aureus, 18 h
Protocol: as §2

[23] = test system: B. subtilis ATCC 6633; test: as above; details: Bacillus subtilis, ATCC6633, 18 h
Protocol: as §2

[24] = test system: M. hyopneumoniae HK (2); test: MIC against Mycoplasma in vitro (Friis broth with agarose); format: cell-based; details: Mesomycoplasma hyopneumoniae, 144 h
[25] = test system: M. hyopneumoniae LABER; test: as above; format: cell-based; details: Mesomycoplasma hyopneumoniae, 144 h; M. hyopneumoniae LABER; 6 days at 37° C; read-out: MIC
[26] = test system: Corynebacterium xerosis 9755; test: MIC against human bacteria in vitro (nutrient agar, chocolated horse blood); format: cell-based; details: human; Corynebacterium xerosis 9755; 18 hours at 37° C; read-out: MIC
Protocol: as §1

[27] = test system: Strep. pyogenes R80/421-A; test: as above; format: cell-based; details: Streptococcus pyogenes; human; Strep. pyogenes R80/421-A; 18 hours at 37° C; read-out: MIC
Protocol: as §1

[28] = M. hyopneumoniae JF 435, 6 days at 37° C, read-out: MIC
[29] = M. hyopneumoniae J2206/183^b, 6 days at 37° C, read-out: MIC
[30] = human, Neisseria catarrhalis 1502, 18 hours at 37° C, read-out: MIC
[31] = human, Staph. aureus Oxford, 18 hours at 37° C, read-out: MIC
[32] = M. hyopneumoniae HK (2), 6 days at 37° C, read-out: MIC

| SMILES | MIC [2, 28] | MIC [3, 29] | MIC [5] | MIC [6] | MIC [7] | MIC [8] | MIC [9] | MIC [11] | MIC [12] | MIC [13] | MIC [14] | MIC [15, 31] | MIC [16] | MIC [17] | MIC [18] | MIC [19] | MIC [20] | MIC [21] | MIC [22] | MIC [23] | other results |
| --- | --- | --- | --- | --- | --- | --- | --- | --- | --- | --- | --- | --- | --- | --- | --- | --- | --- | --- | --- | --- | --- |
| CC(=Cc1nnc(-c2cccc(C#N)c2)o1)CC1OCC(CC2OC2C(C)C(C)O)C(O)C1O (stereo not shown) [Example 11, 2-(m-Cyanophenyl)-5-(1-normon-2-yl)-1,3,4-oxadiazole A] | 0.25 µg/mL (≈ 0.532 µM) | 0.25 µg/mL (≈ 0.532 µM) | 2 µg/mL (≈ 4.26 µM) | 2 µg/mL (≈ 4.26 µM) | > 64 µg/mL | 0.5 µg/mL (≈ 1.06 µM) | > 64 µg/mL | > 64 µg/mL | 2 µg/mL (≈ 4.26 µM) | > 64 µg/mL | > 64 µg/mL | 8 µg/mL (≈ 17 µM) | 32 µg/mL (≈ 68.2 µM) | 16 µg/mL (≈ 34.1 µM) | 2 µg/mL (≈ 4.26 µM) | > 64 µg/mL | 2 µg/mL (≈ 4.26 µM) | > 80 µg/mL | 5 µg/mL (≈ 10.6 µM) | 2.5 µg/mL (≈ 5.32 µM) | MIC ([1]; NB12, 144 h): 0.25 µg/mL (≈ 0.532 µM); MIC [4]: 0.1 µg/mL (≈ 0.213 µM); MIC [10, 30]: 0.25 µg/mL (≈ 0.532 µM) |
| CC(=Cc1nnc(-c2ccco2)o1)CC1OCC(CC2OC2C(C)C(C)O)C(O)C1O (stereo not shown) [Example 8, 2-(2-Furyl)-5-(1-normon-2-yl)-1,3,4-oxadiazole A] | 10 µg/mL (≈ 23 µM) | 10 µg/mL (≈ 23 µM) | 4 µg/mL (≈ 9.21 µM) | 8 µg/mL (≈ 18.4 µM) | > 128 µg/mL | 0.25 µg/mL (≈ 0.575 µM) | > 128 µg/mL | > 128 µg/mL | 1 µg/mL (≈ 2.3 µM) | > 128 µg/mL | > 128 µg/mL | 4 µg/mL (≈ 9.21 µM) | 64 µg/mL (≈ 147 µM) | 32 µg/mL (≈ 73.6 µM) | 32 µg/mL (≈ 73.6 µM) | > 128 µg/mL | 32 µg/mL (≈ 73.6 µM) | > 80 µg/mL | 80 µg/mL (≈ 184 µM) | 10 µg/mL (≈ 23 µM) | MIC [24, 32]: 10 µg/mL (≈ 23 µM); MIC [10, 30]: 0.5 µg/mL (≈ 1.15 µM) |
| CC(=Cc1nnc(-c2ccc(N(C)C)cc2)o1)CC1OCC(CC2OC2C(C)C(C)O)C(O)C1O (stereo not shown) [Example 10, 2-(4-Dimethylaminophenyl)-5-(1-normon-2-yl)-1,3,4-oxadiazole A] | – | – | 2 µg/mL (≈ 4.1 µM) | 2 µg/mL (≈ 4.1 µM) | > 128 µg/mL | 2 µg/mL (≈ 4.1 µM) | > 128 µg/mL | > 128 µg/mL | 16 µg/mL (≈ 32.8 µM) | > 128 µg/mL | > 128 µg/mL | – | 4 µg/mL (≈ 8.2 µM) | 4 µg/mL (≈ 8.2 µM) | 16 µg/mL (≈ 32.8 µM) | > 128 µg/mL | 16 µg/mL (≈ 32.8 µM) | > 80 µg/mL | 20 µg/mL (≈ 41 µM) | 5 µg/mL (≈ 10.3 µM) | MIC [2]: 1 µg/mL (≈ 2.05 µM); MIC [24]: 5 µg/mL (≈ 10.3 µM); MIC [3]: 5 µg/mL (≈ 10.3 µM); MIC ([10]; Neisseria, 1502, 18 h): 0.5 µg/mL (≈ 1.03 µM); MIC ([15]; 18 h): 1 µg/mL (≈ 2.05 µM) |
| CC(=Cc1nnc(-c2ccc(S(C)(=O)=O)cc2)o1)CC1OCC(CC2OC2C(C)C(C)O)C(O)C1O (stereo not shown) [Example 4, 2-p-Methylsulphonylphenyl-5-(1-normon-2-yl)-1,3,4-oxadiazole A] | 0.25 µg/mL (≈ 0.478 µM) | 0.5 µg/mL (≈ 0.957 µM) | 16 µg/mL (≈ 30.6 µM) | 4 µg/mL (≈ 7.65 µM) | > 64 µg/mL | 1 µg/mL (≈ 1.91 µM) | > 64 µg/mL | > 64 µg/mL | 4 µg/mL (≈ 7.65 µM) | > 64 µg/mL | > 64 µg/mL | 8 µg/mL (≈ 15.3 µM) | 32 µg/mL (≈ 61.2 µM) | 32 µg/mL (≈ 61.2 µM) | 16 µg/mL (≈ 30.6 µM) | > 64 µg/mL | 16 µg/mL (≈ 30.6 µM) | > 80 µg/mL | 10 µg/mL (≈ 19.1 µM) | 5 µg/mL (≈ 9.57 µM) | MIC ([1]; 144 h, M. hyopneumoniae NB12, 6 days at 37° C, read-out: MIC): 0.25 µg/mL (≈ 0.478 µM); MIC [24, 32]: 0.25 µg/mL (≈ 0.478 µM); MIC [4]: 0.1 µg/mL (≈ 0.191 µM); MIC [25]: 0.25 µg/mL (≈ 0.478 µM); MIC [26]: > 64 µg/mL; MIC [27]: 16 µg/mL (≈ 30.6 µM) |
| CC(=Cc1nnc(-c2cccnc2)o1)CC1OCC(CC2OC2C(C)C(C)O)C(O)C1O (stereo not shown) [Example 5, 2-(1-Normon-2-yl)-5-(3-pyridyl)-1,3,4-oxadiazole A] | 2.5 µg/mL (≈ 5.61 µM) | 2.5 µg/mL (≈ 5.61 µM) | 4 µg/mL (≈ 8.98 µM) | 4 µg/mL (≈ 8.98 µM) | > 128 µg/mL | 0.5 µg/mL (≈ 1.12 µM) | > 128 µg/mL | > 128 µg/mL | 1 µg/mL (≈ 2.24 µM) | > 128 µg/mL | > 128 µg/mL | 8 µg/mL (≈ 18 µM) | 32 µg/mL (≈ 71.8 µM) | 32 µg/mL (≈ 71.8 µM) | 32 µg/mL (≈ 71.8 µM) | > 128 µg/mL | 32 µg/mL (≈ 71.8 µM) | > 80 µg/mL | 20 µg/mL (≈ 44.9 µM) | 2.5 µg/mL (≈ 5.61 µM) | MIC ([1]; NB12, 144 h): 2.5 µg/mL (≈ 5.61 µM); MIC [4]: 1 µg/mL (≈ 2.24 µM); MIC [25]: 1 µg/mL (≈ 2.24 µM); MIC [26]: > 128 µg/mL; MIC [27]: 8 µg/mL (≈ 18 µM) |
